Earlier results as cited in patent publication US20080181937A1, “DOSAGE REGIMEN AND MEDICAMENT FOR GUARDING MEMORY AND BRAIN HEALTH AND FOR PREVENTING OR REDUCING RISK OF ONSET OF DEMENTIA BY ADMINISTRATION OF SPECIFIC VITAMINS AND SUPPLEMENTS (MEMOGUARD)” (priority 2007, published 2008).

Columns and labels:
[1] = system: patients with marked memory loss at risk for developing Alzheimer's disease
[2] = system: animal model of rheumatoid arthritis
[3] = system: normal healthy subjects and the elderly; settings: fish 2-3 times a week or supplements
[4] = system: amyloid; settings: in vivo
[5] = system: elderly patients

## COc1cc2c(cc1OC)C(=O)C(CC1CCN(Cc3ccccc3)CC1)C2 (centres unmarked) [Aricept]
[1]
  prevention of the onset of Alzheimer's disease: Neither of these drugs were shown to significantly prevent the onset

## COc1cc(/C=C/C(=O)CC(=O)/C=C/c2ccc(O)c(OC)c2)ccc1O [Curcumin]
[2]
  inflammation: can reduce inflammation

## CC/C=C\C/C=C\C/C=C\C/C=C\C/C=C\C/C=C\CCC(=O)O [DHA]
[3]; normal healthy subjects
  memory and attention: increases memory and attention
[3]; the elderly
  risk of Alzheimer's: significantly lowers the risk of Alzheimer's
[4]
  amount of amyloid in the brain: can reduce the amount of amyloid in the brain

## COc1ccc2c3c1O[C@H]1C[C@@H](O)C=C[C@@]31CCN(C)C2 [Razadyne]
[1]
  prevention of the onset of Alzheimer's disease: Neither of these drugs were shown to significantly prevent the onset

## CC(C)Cc1ccc(C(C)C(=O)O)cc1 (centres unmarked) [ibuprofen]
[5]; observational studies, individuals taking NSAID's
  incidence of Alzheimer's disease: lower incidence of Alzheimer's disease

## vitamin E
[5]; patients with cognitive impairment or dementia
  transfer to a nursing home: can even delay transfer to a nursing home
